The source of these data is US20140336182A1, “Aurora Kinase Modulators and Method of Use” (Amgen Inc., priority 2013, published 2014).

In the first assay the test system is HeLa cells. As to the kind of experiment: HeLa cell 24 hr ploidy assay (DNA content). Type of assay: cell-based. Particulars: Homo sapiens, HeLa, 4N ploidy, average, read-out: 24h_4NPloidy EC50_IP (uM Avg). Summed up:
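DNA content measured by Hoechst 33342 nuclear staining (0.5 ug/ml, 45 min RT) and high-content imaging of fixed HeLa cells after 24 h compound exposure in 0.25% DMSO. Fractions of 4N and >4N cells fitted to dose curves giving EC50 IP, EC50 transit, Max and Min.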
For the compound `COc1cnc2c(Oc3ccc(Nc4nnc(N5CCCCCC5)c5ccccc45)cc3)ccnc2c1` [Example 32, 4-(azepan-1-yl)-N-(4-(7-methoxy-1,5-naphthyridin-4-yloxy)phenyl)phthalazin-1-amine], the EC50 worked out at 0.036 µM.
The same measure, in the same setting: the result for `COc1cc2nccc(Oc3ccc(Nc4nnc(N5CCCCC5)c5ccccc45)cc3)c2cc1OC` [compound 75] reads 0.025 µM.
On to `COc1cnc2c(Oc3ccc(Nc4nnc(-c5ccc6occc6c5)c5ccccc45)cc3)ccnc2c1` [compound 159], for which the EC50 turned out to be 0.007 µM.
Same read-out and setting: the result for `COc1cnc2c(Oc3ccc(Nc4nnc(-c5ccc(Cl)s5)c5ccccc45)cc3)ccnc2c1` [compound 140, 4-(5-chloro-2-thienyl)-N-(4-((7-(methyloxy)-1,5-naphthyridin-4-yl)oxy)phenyl)-1-phthalazinamine] reads 0.022 µM; that for `COc1cnc2c(Oc3ccc(Nc4nnc(-c5ccccc5)c5ccccc45)nc3)ccnc2c1` [compound 135], 0.449 µM.
The same measure, in the same setting: the result for `COc1cc2nccc(Oc3ccc(Nc4nnc(-c5cccc(CO)n5)c5ccccc45)cc3)c2cc1OC` [compound 112] reads 0.02 µM; that for `COc1cnc2c(Oc3ccc(Nc4nnc(-c5cccc(C)n5)c5ccccc45)cc3)ccnc2c1` [compound 111], 0.109 µM; that for `COc1cnc2c(Oc3ccc(Nc4nnc(-c5ccc(C(C)(C)C)cc5)c5ccccc45)cc3)ccnc2c1` [Example 38, 4-(4-tert-butylphenyl)-N-(4-(7-methoxy-1,5-naphthyridin-4-yloxy)phenyl)phthalazin-1-amine], 0.08 µM.

The same assay, now with this note: Homo sapiens, HeLa, HeLa cells, 4N ploidy, average, read-out: 24h_4NPloidy EC50_IP (uM Avg).
Consider `COc1cc(OC)c2c(Oc3ccc(Nc4nnc(-c5cc(C)cs5)c5ccccc45)cc3)ccnc2c1` [compound 441], for which the EC50 worked out at 0.008 µM.
Still for that read-out and setting: the result for `COc1cnc2c(Sc3ccc(Nc4nnc(-c5cscn5)c5ccccc45)cc3)ccnc2c1` [compound 506] reads 0.067 µM.
For `c1ccc(-c2nnc(Nc3ccc(Oc4ccnc5cc(-c6cn[nH]c6)ccc45)cc3)c3ccccc23)cc1` [compound 417], the EC50 came to 0.001 µM.
The same measure, in the same setting: the result for `c1ccc(-c2nnc(Nc3ccc(Sc4ccnc5c4CCCN5)cc3)c3ccccc23)cc1` [compound 577] reads 0.025 µM; that for `N#Cc1cc2nccc(Sc3ccc(Nc4nnc(-c5ccc(Cl)cc5)c5ccccc45)cc3)c2o1` [compound 489], 0.017 µM.
On to `c1ccc(-c2nnc(Nc3ccc(Sc4ccnc5[nH]cnc45)cc3)c3ccccc23)cc1` [compound 362], for which the EC50 was 0.105 µM.
Take `COCCNc1nnc(Nc2ccc(Sc3ccnc4cc(OC)cnc34)cc2)c2ccccc12` [compound 533]: the EC50 came to 0.062 µM.
The same measure, in the same setting: the result for `COc1cnc2c(Oc3ccc(Nc4nnc(N5CCSCC5)c5ccccc45)cc3)ccnc2c1` [compound 337] reads 0.229 µM; that for `COc1ccc2c(Oc3ccc(Nc4nnc(-c5ccccc5)c5ccccc45)cc3)c(F)cnc2c1` [compound 164], 0.076 µM.
Same read-out and setting: the result for `COc1cc2nccc(Sc3ccc(Nc4nnc(-c5ccc(Cl)cc5)c5ccccc45)cc3)c2cn1` [compound 354] reads 0.007 µM; that for `COc1ccc2c(Oc3ccc(Nc4nnc(-c5ccc(Cl)cc5)c5ccccc45)cc3)ccnc2c1` [compound 345], 0.013 µM; that for `CCc1cc(-c2ccc(C)cc2)nnc1Nc1ccc(Oc2ccnc3cc(OC)cnc23)cc1` [compound 307], 0.023 µM.
On the same count and under the same terms, the result for `Nc1ccc2nccc(Sc3ccc(Nc4nnc(-c5ccccc5)c5ccccc45)cc3)c2c1` [Example 399, N-(4-(6-Aminoquinolin-4-ylthio)phenyl)-4-phenylphthalazin-1-amine] reads 0.019 µM.
On to `COc1cnc2c(Oc3ccc(Nc4nnc(-c5ccc(OC)c(F)c5)c5ccccc45)cc3)ccnc2c1` [compound 227], for which the EC50 was 0.061 µM.
Still for that read-out and setting: the result for `Cc1ccc(-c2nnc(Nc3ccc(Sc4ccnc5ccoc45)cc3)c3ccccc23)cn1` [compound 481] reads 0.032 µM; that for `COc1cnc2c(Oc3ccc(Nc4nnc(-c5ccc6c(ccn6C)c5)c5ccccc45)cc3)ccnc2c1` [compound 204, 4-(1-methyl-1H-indol-5-yl)-N-(4-((7-(methyloxy)-1,5-naphthyridin-4-yl)oxy)phenyl)-1-phthalazinamine], 0.021 µM.
Take `COc1cnc2c(Oc3ccc(Nc4nnc(-c5cccnc5F)c5ccccc45)cc3)ccnc2c1` [compound 191]: the EC50 is > 1.2 µM.
With `COc1cnc2c(Sc3ccc(Nc4nnc(N5CCC(C(F)(F)F)CC5)c5ccccc45)cc3)ccnc2c1` [compound 523], the EC50 is 0.006 µM.
As for `COc1cnc2c(Sc3ccc(Nc4nnc(-c5cccc(Cl)c5)c5ccccc45)cc3)ccnc2c1` [compound 516], the EC50 turned out to be 0.025 µM.
The same measure, in the same setting: the result for `O=C(c1cc2nccc(Sc3ccc(Nc4nnc(-c5ccccc5)c5ccccc45)cc3)c2s1)N1CCOCC1` [compound 313] reads 0.076 µM; that for `Cc1csc(-c2nnc(Nc3ccc(Sc4ccnc5ccoc45)cc3)c3ccccc23)c1` [compound 468], 0.014 µM.
Regarding `COc1cnc2c(Oc3ccc(Nc4nnc(N5CC[C@H]6CCCC[C@H]6C5)c5ccccc45)cc3)ccnc2c1` [compound 173], the EC50 was determined as 0.006 µM.
Same read-out and setting: the result for `Cc1ccc(-c2nnc(Nc3ccc(Oc4ccnc5ccncc45)cc3)c3ccccc23)nc1` [compound 432] reads 0.109 µM; that for `COc1cnc2c(Oc3ccc(Nc4nnc(-c5ccc(F)nc5)c5ccccc45)cc3)ccnc2c1` [compound 190, 4-(6-fluoro-3-pyridinyl)-N-(4-((7-(methyloxy)-1,5-naphthyridin-4-yl)oxy)phenyl)-1-phthalazinamine], 0.129 µM.
The same measure, in the same setting: the result for `c1ccc(-c2nnc(Nc3ccc(Oc4ccnc5ccsc45)cc3)c3ccccc23)cc1` [compound 251] reads 0.227 µM; that for `CCc1cc(-c2ccc(C)s2)nnc1Nc1ccc(Oc2ccnc3cc(OC)cnc23)cc1` [compound 205, 4-ethyl-N-(4-((7-(methyloxy)-1,5-naphthyridin-4-yl)oxy)phenyl)-6-(5-methyl-2-thienyl)-3-pyridazinamine], 0.074 µM; that for `COc1cnc2c(Oc3ccc(Nc4nncc5ccccc45)cc3)ccnc2c1` [compound 542, N-(4-((7-methoxy-1,5-naphthyridin-4-yl)oxy)phenyl)-1-phthalazinamine], 0.382 µM.
With `O=C(c1cc2nccc(Oc3ccc(Nc4nnc(-c5ccc(Cl)cc5)c5ccccc45)cc3)c2s1)N1CCOCC1` [compound 259], the EC50 came out at 0.051 µM.
Turning to `COc1cnc2c(Oc3ccc(Nc4nnc(-c5cccc(Cl)c5)c5ccccc45)cc3)ccnc2c1` [compound 219], the EC50 turned out to be 0.031 µM.
Same read-out and setting: the result for `COc1cnc2c(Oc3ccc(Nc4nnc(C#CC(C)(C)C)c5ccccc45)cc3)ccnc2c1` [Example 31, 4-(3,3-dimethylbut-1-ynyl)-N-(4-(7-methoxy-1,5-naphthyridin-4-yloxy)phenyl)phthalazin-1-amine] reads 0.045 µM; that for `COc1cnc2c(Oc3ccc(Nc4nnc(-c5ccc(Cl)cc5C)c5ccccc45)cc3)ccnc2c1` [compound 233], 0.6 µM; that for `COCCCNc1nnc(Nc2ccc(Sc3ccnc4cc(OC)cnc34)cc2)c2ccccc12` [compound 535], 0.026 µM.
On the same count and under the same terms, the result for `COc1cc(F)cc2nccc(Oc3ccc(Nc4nnc(-c5ccc(Cl)cc5)c5ccccc45)cc3)c12` [compound 437] reads 0.005 µM; that for `COc1cnc2c(Oc3ccc(Nc4nnc(-c5cc(CO)cs5)c5ccccc45)cc3)ccnc2c1` [Example 407, (5-(4-(4-(7-Methoxy-1,5-naphthyridin-4-yloxy)phenylamino)phthalazin-1-yl)thiophen-3-yl)methanol], 0.012 µM; that for `COc1ccc(-c2nnc(Nc3ccc(Sc4ccnc5cccnc45)cc3)c3ccccc23)cn1` [compound 509], 0.008 µM.
Take `COCCOc1ccc(-c2nnc(Nc3ccc(Sc4ccnc5cc(OC)cnc45)cc3)c3ccccc23)cc1OCCOC` [compound 473]: the EC50 was 0.1 µM.
The same measure, in the same setting: the result for `FC1(F)Oc2ccc(-c3nnc(Nc4ccc(Oc5ccnc6ccsc56)cc4)c4ccccc34)cc2O1` [compound 293] reads 0.045 µM; that for `COc1cnc2c(Oc3ccc(Nc4nnc(-c5ccc(Cl)cc5OC)c5ccccc45)cc3)ccnc2c1` [compound 253], 0.835 µM.
On the same count and under the same terms, the result for `COc1ccc2nccc(Oc3ccc(Nc4nnc(-c5ccc(Cl)cn5)c5ccccc45)cc3)c2c1` [compound 278] reads 0.011 µM; that for `Cn1cc(-c2ccc3nccc(Oc4ccc(Nc5nnc(-c6ccccc6)c6ccccc56)cc4)c3c2)cn1` [Example 45, N-(4-(6-(1-Methyl-1H-pyrazol-4-yl)quinolin-4-yloxy)phenyl)-4-phenylphthalazin-1-amine], 0.056 µM; that for `COc1cnc2c(Sc3ccc(Nc4nnc(OCC(F)(F)F)c5ccccc45)cc3)ccnc2c1` [compound 513], 0.059 µM.
Same read-out and setting: the result for `COc1ccc2nccc(Sc3ccc(Nc4nnc(-c5cccc(C)n5)c5ccccc45)cc3)c2n1` [compound 419] reads 0.124 µM; that for `CCCc1cc(-c2ccccc2)nnc1Nc1ccc(Oc2ccnc3cc(C#N)ccc23)cc1` [compound 196], 0.342 µM; that for `COc1ccc2nccc(Sc3ccc(Nc4nnc(N5CCCCC5)c5ccccc45)cc3)c2n1` [compound 548], 0.036 µM.
In the case of `Clc1ccc(-c2nnc(Nc3ccc(Sc4ccnc5cc(C6CC6)oc45)cc3)c3ccccc23)cc1` [compound 486], the EC50 is 0.002 µM.
Same read-out and setting: the result for `c1ccc(-c2nnc(Nc3ccc(Sc4ncnc5ccccc45)cc3)c3ccccc23)cc1` [compound 561] reads > 1.2 µM.
The same measure, in the same setting: the result for `COc1cnc2c(Oc3ccc(Nc4nnc(-c5ccc(C)c(Cl)c5)c5ccccc45)cc3)ccnc2c1` [compound 224] reads 0.007 µM.
Consider `COc1cnc2c(Oc3ccc(Nc4nnc(N5CC[C@@H]6CCCC[C@H]6C5)c5ccccc45)cc3)ccnc2c1` [compound 587], for which the EC50 is 0.14 µM.
